Reference: patent publication US20230081426A1, “COMPOUNDS AND METHODS FOR KRAS MODULATION AND INDICATIONS THEREFOR” (Plexxikon Inc., priority 2020, published 2023)

Tests used:
[1] = molecular target: T1, G12V-mutant human KRAS (amino acid residues 1-188) (Homo sapiens, UniProt P01116, G12V); test: KRAS Binding Competition Assay (AlphaScreen; biotinylated KRpep-2d analogue), G12V; conditions: geometric mean, read-out: KRAS GMean IC50 (uM) MUTATION: G12V
T1 construct: G12V-mutant human KRAS (amino acid residues 1-188) with FLAG tag was purified from E. coli; made in house; host or cells: E. coli

[2] = molecular target: T2, G12D-mutant human KRAS (amino acid residues 1-188) (Homo sapiens, UniProt P01116, G12D); test: KRAS Binding Disruption Assay (AlphaScreen; biotinylated KRpep-2d analogue or RAF1-RBD), G12D; conditions: KRAS G12D; geometric mean; read-out: KRAS GMean IC50 (uM) MUTATION: G12D
T2 construct: G12D or G12C-mutant human KRAS (amino acid residues 1-188) with FLAG tag; made in house; host or cells: E. coli
Method in brief: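 Displacement format with mutant KRAS, biotinylated KRpep-2d analogue or RAF1-RBD (5-20 nM each) at pH 7.5 with 5 mM MgCl2.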

IC50 [1] [µM]	IC50 [2] [µM]	SMILES
10 to 100	10 to 100	CN1CCc2c(cccc2Oc2nc(N3C[C@H]4CC[C@@H](C3)N4)c3ccc(-c4c(O)cccc4F)c(F)c3n2)C1 [P-0334, 2-(4-((1R,5S)-3,8-diazabicyclo[3.2.1]octan-3-yl)-8-fluoro-2-((2-methyl-1,2,3,4-tetrahydroisoquinolin-5-yl)oxy)quinazolin-7-yl)-3-fluorophenol]
10 to 100	100 to 1000	CN1CCC[C@H]1COc1nc(N2C[C@H]3CC[C@@H](C2)N3)c2ccc(-c3ccnc(N)c3)cc2n1 [P-0168, 4-(4-((1R,5S)-3,8-diazabicyclo[3.2.1]octan-3-yl)-2-(((S)-1-methylpyrrolidin-2-yl)methoxy)quinazolin-7-yl)pyridin-2-amine]
10 to 100	10 to 100	CN1CCN(CCNC(=O)N2[C@@H]3CC[C@H]2CN(c2nc(OCC4CCCN4C)nc4c(F)c(-c5cc(O)cc6ccccc56)ccc24)C3)CC1 (stereo partly drawn) [P-0416, (1R,5S)-3-(8-fluoro-7-(3-hydroxynaphthalen-1-yl)-2-((1-methylpyrrolidin-2-yl)methoxy)quinazolin-4-yl)-N-(2-(4-methylpiperazin-1-yl)ethyl)-3,8-diazabicyclo[3.2.1]octane-8-carboxamide]
10 to 100	0.0001 to 10	O=C(O)CCc1nc(N2[C@@H]3CC[C@H]2CNC3)c2ccc(-c3cc(O)cc4ccccc34)cc2n1 [P-0198, 3-(4-((1R,5S)-3,8-diazabicyclo[3.2.1]octan-8-yl)-7-(3-hydroxynaphthalen-1-yl)quinazolin-2-yl)propanoic acid]
0.0001 to 10	0.0001 to 10	CN(C)CCNS(=O)(=O)N1[C@@H]2CC[C@H]1CN(c1nc(OCC34CCCN3CCC4)nc3c(F)c(-c4cc(O)cc5ccccc45)ccc13)C2 [P-0280, (1R,5S)-N-(2-(dimethylamino)ethyl)-3-(8-fluoro-7-(3-hydroxynaphthalen-1-yl)-2-((tetrahydro-1H-pyrrolizin-7a(5H)-yl)methoxy)quinazolin-4-yl)-3,8-diazabicyclo[3.2.1]octane-8-sulfonamide]
10 to 100	10 to 100	CN1CCC[C@H]1COc1nc(N2C[C@H]3CC[C@@H](C2)N3)c2ccc(-c3c[nH]c4cccc(Cl)c34)cc2n1 [P-0255, 4-((1R,5S)-3,8-diazabicyclo[3.2.1]octan-3-yl)-7-(4-chloro-1H-indol-3-yl)-2-(((S)-1-methylpyrrolidin-2-yl)methoxy)quinazoline]
0.0001 to 10	0.0001 to 10	CN(C)c1cccc(COc2nc(N3[C@@H]4CC[C@H]3CNC4)c3ccc(-c4cc(O)cc5ccccc45)cc3n2)c1 [P-0320, 4-(4-((1R,5S)-3,8-diazabicyclo[3.2.1]octan-8-yl)-2-((3-(dimethylamino)benzyl)oxy)quinaz-olin-7-yl)naphthalen-2-ol]
0.0001 to 10	0.0001 to 10	CN1CCN(CCNS(=O)(=O)N2[C@@H]3CC[C@H]2CN(c2nc(OCC45CCCN4CCC5)nc4c(F)c(-c5cc(O)cc6ccccc56)ccc24)C3)CC1 [P-0281, (1R,5S)-3-(8-fluoro-7-(3-hydroxynaphthalen-1-yl)-2-((tetrahydro-1H-pyrrolizin-7a(5H)-yl)methoxy)quinazolin-4-yl)-N-(2-(4-methylpiperazin-1-yl)ethyl)-3,8-diazabicyclo[3.2.1]octane-8-sulfonamide]
10 to 100	0.0001 to 10	CN1CCCC[C@H]1COc1nc(N2C[C@H]3CC[C@@H](C2)N3)c2ccc(-c3cc(O)cc4ccccc34)cc2n1 [P-0079, 4-(4-((1R,5S)-3,8-diazabicyclo[3.2.1]octan-3-yl)-2-(((S)-1-methylpiperidin-2-yl)methoxy)quinazolin-7-yl)naphthalen-2-ol]
0.0001 to 10	0.0001 to 10	CN(C)S(=O)(=O)CC(=O)N1[C@@H]2CC[C@H]1CN(c1nc(OCC34CCCN3CCC4)nc3c(F)c(-c4cc(O)cc5ccccc45)ccc13)C2 [P-0410, 2-((1R,5S)-3-(8-fluoro-7-(3-hydroxynaphthalen-1-yl)-2-((tetrahydro-1H-pyrrolizin-7a(5H)-yl)methoxy)quinazolin-4-yl)-3,8-diazabicyclo[3.2.1]octan-8-yl)-N,N-dimethyl-2-oxoethane-1-sulfonamide]
10 to 100	0.0001 to 10	Cc1cccc2c1N(c1ccc3c(N4C[C@H]5CC[C@@H](C4)N5)nc(OC[C@@H]4CCCN4C)nc3c1F)CC(O)C2 (stereo partly drawn) [P-0360, 1-(4-((1R,5S)-3,8-diazabicyclo[3.2.1]octan-3-yl)-8-fluoro-2-(((S)-1-methylpyrrolidin-2-yl)methoxy)quinazolin-7-yl)-8-methyl-1,2,3,4-tetrahydroquinolin-3-ol]
0.0001 to 10	0.0001 to 10	N#CCC(=O)N1[C@@H]2CC[C@H]1CN(c1nc(OCC34CCCN3CCC4)nc3c(F)c(-c4cc(O)cc5ccccc45)c(Cl)cc13)C2 [P-0461, 3-((1R,5S)-3-(6-chloro-8-fluoro-7-(3-hydroxynaphthalen-1-yl)-2-((tetrahydro-1H-pyrrolizin-7a(5H)-yl)methoxy)quinazolin-4-yl)-3,8-diazabicyclo[3.2.1]octan-8-yl)-3-oxopropanenitrile]
0.0001 to 10	0.0001 to 10	CN1CC[C@@H](NS(=O)(=O)N2[C@@H]3CC[C@H]2CN(c2nc(OCC45CCCN4CCC5)nc4c(F)c(-c5cc(O)cc6ccccc56)ccc24)C3)C1 [P-0282, (1R,5S)-3-(8-fluoro-7-(3-hydroxynaphthalen-1-yl)-2-((tetrahydro-1H-pyrrolizin-7a(5H)-yl)methoxy)quinazolin-4-yl)-N-((R)-1-methylpyrrolidin-3-yl)-3,8-diazabicyclo[3.2.1]octane-8-sulfonamide]
100 to 1000	10 to 100	CN1CCC[C@H]1COc1nc(N2[C@@H]3CC[C@H]2CN(C(=O)C2CCC(=O)N2)C3)c2ccc(-c3cc(O)cc4ccccc34)cc2n1 (stereo partly drawn) [P-0222, 5-((1R,5S)-8-(7-(3-hydroxynaphthalen-1-yl)-2-(((S)-1-methylpyrrolidin-2-yl)methoxy)quinazolin-4-yl)-3,8-diazabicyclo[3.2.1]octane-3-carbonyl)pyrrolidin-2-one]
10 to 100	0.0001 to 10	CN1CCC[C@H]1COc1nc(N2C[C@H]3CC[C@@H](C2)N3CC(=O)Nc2ccccn2)c2ccc(-c3cc(O)cc4ccccc34)c(F)c2n1 [P-0475, 2-((1R,5S)-3-(8-fluoro-7-(3-hydroxynaphthalen-1-yl)-2-(((S)-1-methylpyrrolidin-2-yl)methoxy)quinazolin-4-yl)-3,8-diazabicyclo[3.2.1]octan-8-yl)-N-(pyridin-2-yl)acetamide]
10 to 100	10 to 100	CN1CCC[C@H]1COc1nc(N2[C@@H]3CC[C@H]2CN(C(=O)c2ncn[nH]2)C3)c2ccc(-c3cc(O)cc4ccccc34)cc2n1 [P-0230, ((1R,5S)-8-(7-(3-hydroxynaphthalen-1-yl)-2-(((S)-1-methylpyrrolidin-2-yl)methoxy)quinazolin-4-yl)-3,8-diazabicyclo[3.2.1]octan-3-yl)(1H-1,2,4-triazol-5-yl)methanone]
10 to 100	10 to 100	CN1CCC[C@H]1COc1nc(N2[C@@H]3CC[C@H]2CN(C(=O)CC2CCCNC2)C3)c2ccc(-c3cc(O)cc4ccccc34)cc2n1 (stereo partly drawn) [P-0190, 1-((1R,5S)-8-(7-(3-hydroxynaphthalen-1-yl)-2-(((S)-1-methylpyrrolidin-2-yl)methoxy)quinazolin-4-yl)-3,8-diazabicyclo[3.2.1]octan-3-yl)-2-(piperidin-3-yl)ethan-1-one]
10 to 100	10 to 100	CN1CCC[C@H]1COc1nc(N2C[C@H]3CC[C@@H](C2)N3)c2ccc(-c3cc([N+](=O)[O-])cc4ccccc34)cc2n1 [P-0339, 4-((1R,5S)-3,8-diazabicyclo[3.2.1]octan-3-yl)-2-(((S)-1-methylpyrrolidin-2-yl)methoxy)-7-(3-nitronaphthalen-1-yl)quinazoline]
0.0001 to 10	0.0001 to 10	O=C([C@H]1CCNC1)N1[C@@H]2CC[C@H]1CN(c1nc(OCC34CCCN3CCC4)nc3cc(-c4cc(O)cc5ccccc45)ccc13)C2 [P-0112, ((1R,5S)-3-(7-(3-hydroxynaphthalen-1-yl)-2-((tetrahydro-1H-pyrrolizin-7a(5H)-yl)methoxy)quinazolin-4-yl)-3,8-diazabicyclo[3.2.1]octan-8-yl)((S)-pyrrolidin-3-yl)methanone]
0.0001 to 10	0.0001 to 10	CN1CCC[C@H]1COc1nc(N2C[C@H]3CC[C@@H](C2)N3C(=O)C2CCC(=O)N2)c2ccc(-c3cc(O)cc4ccccc34)c(F)c2n1 (stereo partly drawn) [P-0396, 5-((1R,5S)-3-(8-fluoro-7-(3-hydroxynaphthalen-1-yl)-2-(((S)-1-methylpyrrolidin-2-yl)methoxy)quinazolin-4-yl)-3,8-diazabicyclo[3.2.1]octane-8-carbonyl)pyrrolidin-2-one]
0.0001 to 10	0.0001 to 10	O=C(O)CC(=O)N1[C@@H]2CC[C@H]1CN(c1nc(OCC34CCCN3CCC4)nc3c(F)c(-c4cc(O)cc5ccccc45)ccc13)C2 [P-0353, 3-((1R,5S)-3-(8-fluoro-7-(3-hydroxynaphthalen-1-yl)-2-((tetrahydro-1H-pyrrolizin-7a(5H)-yl)methoxy)quinazolin-4-yl)-3,8-diazabicyclo[3.2.1]octan-8-yl)-3-oxopropanoic acid]
100 to 1000	10 to 100	CN1CCC[C@H]1COc1nc(N2C[C@H]3CC[C@@H](C2)N3)c2ccc(-c3c[nH]c4ccc(C#N)cc34)c(F)c2n1 [P-0313, 3-(4-((1R,5S)-3,8-diazabicyclo[3.2.1]octan-3-yl)-8-fluoro-2-(((S)-1-methylpyrrolidin-2-yl)methoxy)quinazolin-7-yl)-1H-indole-5-carbonitrile]
